Measured values: patent US6369069B1 (Aventis Pharma Deutschland GmbH, priority 1998, dated 2002)

test system: Na^+-dependent Cl^−/HCO3^− exchanger (NCBE); assay: Inhibition of the Na+-dependent Cl−/HCO3− exchanger (NCBE) in human endothelial cells (pHi recovery, BCECF fluorescence, FLIPR); assay type: cell-based; conditions: 10 μM
Method in brief: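 ECV-304 cells loaded with 5 μM BCECF-AM in NH4Cl-containing saline, then placed in Na+/HCO3−-free buffer to acidify. pHi recovery started with Na+/HCO3− buffer (50 μM HOE 642) plus compound at various concentrations. Fluorescence kinetics over 2 min at 35 °C, normalised to 100% and 0% (HCO3−-free) controls.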

| Structure (SMILES) | Residual activity % of the NCBE at 10 μM |
| --- | --- |
| COc1cccc(CC(=O)N(Cc2ccc(-c3ccccc3S(=O)(=O)NC#N)cc2)C2CCCCC2)c1 [Example 24] | 92.1% |
| CC(=O)N(Cc1ccc(-c2ccccc2S(=O)(=O)NC#N)cc1)Cc1ccccc1Cl [Example 181] | 80.8% |
| N#CNS(=O)(=O)c1ccccc1-c1ccc(CN(Cc2cccc3ccccc23)C(=O)Cc2ccccc2Br)cc1 [Example 277] | 36.3% |
| COc1cc(CN(Cc2ccc(-c3ccccc3S(=O)(=O)NC#N)cc2)C(=O)CC(C)(C)C)cc(OC)c1OC [Example 162] | 30.2% |
| N#CNS(=O)(=O)c1ccccc1-c1ccc(CN(Cc2ccccn2)C(=O)Cc2ccsc2)cc1 [Example 228] | 94.8% |
| N#CNS(=O)(=O)c1ccccc1-c1ccc(CN(Cc2cccs2)C(=O)Cc2ccccc2[N+](=O)[O-])cc1 [Example 252] | 44.5% |
| N#CNS(=O)(=O)c1ccccc1-c1ccc(CN(CCc2ccc(S(N)(=O)=O)cc2)C(=O)Cc2ccccc2Cl)cc1 [Example 294] | 82.7% |
| N#CNS(=O)(=O)c1ccccc1-c1ccc(CN(CCCc2ccccc2)C(=O)CCCCc2cccs2)cc1 [Example 218] | 87.1% |
| C/C=C/C(=O)N(Cc1ccc(OC)cc1)Cc1ccc(-c2ccccc2S(=O)(=O)NC#N)cc1 [Example 64] | 88.0% |
| C[C@@H](c1ccccc1)N(Cc1ccc(-c2ccccc2S(=O)(=O)NC#N)cc1)C(=O)c1cccs1 [Example 83] | 97.5% |
| CC(C)=CCCC(C)=CCN(Cc1ccc(-c2ccccc2S(=O)(=O)NC#N)cc1)C(=O)CC1CCCC1 [Example 363] | 48.3% |
| N#CNS(=O)(=O)c1ccccc1-c1ccc(CN(Cc2ccc(Cl)c(Cl)c2)C(=O)Cc2ccccc2[N+](=O)[O-])cc1 [Example 261] | 67.7% |
| Cc1ccc(CN(Cc2ccc(-c3ccccc3S(=O)(=O)NC#N)cc2)C(=O)C(C(=O)Cc2ccccc2)c2ccccc2)cc1 (centres unmarked) [Example 135] | 97.4% |
| N#CNS(=O)(=O)c1ccccc1-c1ccc(CN(Cc2cccc3ccccc23)C(=O)Cc2ccccc2Cl)cc1 [Example 293] | 55.1% |
| C[C@@H](c1ccccc1)N(Cc1ccc(-c2ccccc2S(=O)(=O)NC#N)cc1)C(=O)Cc1ccccc1 [Example 123] | 72.2% |
| C=CCOC(=O)N(Cc1ccccc1)Cc1ccc(-c2ccccc2S(=O)(=O)NC#N)cc1 [Example 43] | 41.6% |
| COc1ccccc1C(=O)N(Cc1ccc(-c2ccccc2S(=O)(=O)NC#N)cc1)Cc1ccccc1F [Example 336] | 58.1% |
| N#CNS(=O)(=O)c1ccccc1-c1ccc(CN(Cc2ccc(Cl)cc2Cl)C(=O)Cc2cccs2)cc1 [Example 270] | 33.9% |

same assay, conditions: 10 μM compound; human endothelial cells (ECV-304); related to 100% and 0% pHi recovery controls

| Structure (SMILES) | Residual activity of the NCBE at 10 μM |
| --- | --- |
| N#CNS(=O)(=O)c1ccccc1-c1ccc(CN(Cc2ccccc2)C(=O)c2ccccc2OC(F)(F)F)cc1 [Example 567, 4′-{[Benzyl-2-trifluoromethoxybenzoylamino]methyl}biphenyl-2-sulfonylcyanamide] | 69% |
| N#CNS(=O)(=O)c1ccccc1-c1ccc(CN(Cc2ccccc2)C(=O)Cc2ccccc2SC(F)(F)F)cc1 [Example 564] | 23% |
| Cc1ccccc1CC(=O)N(Cc1ccccc1)Cc1ccc(-c2ccccc2S(=O)(=O)NC#N)cc1 [Example 561, 4′-{[Benzyl-2-(2-methylphenyl)acetylamino]methyl}biphenyl-2-sulfonylcyanamide] | 16% |

same assay, conditions: compound at 10 μM; sub-table with R7 substituent

| Structure (SMILES) | Residual activity % of the NCBE at 10 μM |
| --- | --- |
| Cc1ccc(-c2ccc(CN(Cc3ccccc3)C(=O)CC3CCCCC3)cc2)c(S(=O)(=O)NC#N)c1 [Example 545] | 70.1% |
| Cc1ccc(-c2ccc(CN(CCc3ccccc3)C(=O)Cc3cccs3)cc2)c(S(=O)(=O)NC#N)c1 [Example 518] | 93.5% |

test system: not given; assay: not given; conditions: not given

| Structure (SMILES) | melting point |
| --- | --- |
| N#CNS(=O)(=O)c1ccccc1-c1ccc(CN(Cc2ccccc2)C(=O)c2ccccc2OC(F)(F)F)cc1 [Example 567, 4′-{[Benzyl-2-trifluoromethoxybenzoylamino]methyl}biphenyl-2-sulfonylcyanamide] | 160 °C (dec.) |
| N#CNS(=O)(=O)c1ccccc1-c1ccc(CN(Cc2ccccc2)C(=O)Cc2ccccc2SC(F)(F)F)cc1 [Example 564] | 122 °C (dec.) |
| Cc1ccccc1CC(=O)N(Cc1ccccc1)Cc1ccc(-c2ccccc2S(=O)(=O)NC#N)cc1 [Example 561, 4′-{[Benzyl-2-(2-methylphenyl)acetylamino]methyl}biphenyl-2-sulfonylcyanamide] | 108 °C (dec.) |
